The record followed here is patent US20260015354A1, “Solid State Forms of Ensifentrine” (Cipla Limited, priority 2022, published 2026).

The nature of the data set: Comparative solubility of crystalline forms of Ensifentrine at pH 3. The class given is physicochemical. The note with it: for solubility compared to Form I: comparison in words. An excerpt: The solubility of Form C1 and Form I disclosed in U.S. Pat. No. 9,062,047 at pH 3 were compared.
The solubility of Form C3 and Form I disclosed in U.S. Pat. No. 9,062,047 at pH 3 was compared.

In brackets after ≈: the same amount, converted by molar mass.

As to `COc1cc2c(cc1OC)-c1c/c(=N\c3c(C)cc(C)cc3C)n(CCNC(N)=O)c(=O)n1CC2` [Form C1], the “solubility compared to Form I” value is listed as “better solubility compared to Form I”.
For the molecule `COc1cc2c(cc1OC)-c1c/c(=N\c3c(C)cc(C)cc3C)n(CCNC(N)=O)c(=O)n1CC2` [Form C3], the “solubility compared to Form I” value is “better solubility compared to Form I”. This molecule gave a solubility (time 15 min) of 2110 µg/mL (≈ 4.42 mM). This molecule also displayed a solubility (time 30 min) of 1960 µg/mL (≈ 4.1 mM). The same molecule yielded a solubility (time 60 min) of 2000 µg/mL (≈ 4.19 mM). In addition, for the setting “time 120 min”, the solubility was determined as 2050 µg/mL (≈ 4.29 mM). This molecule also gave a solubility (time 240 min) of 2130 µg/mL (≈ 4.46 mM).
As to `COc1cc2c(cc1OC)-c1c/c(=N\c3c(C)cc(C)cc3C)n(CCNC(N)=O)c(=O)n1CC2` [Form I, reference compound], the solubility came to 1380 µg/mL (≈ 2.89 mM) (time 15 min); 1390 µg/mL (≈ 2.91 mM) (time 30 min); 1310 µg/mL (≈ 2.74 mM) (time 60 min); 1350 µg/mL (≈ 2.83 mM) (time 120 min); 1390 µg/mL (≈ 2.91 mM) (time 240 min).

Usually solubility stands for the concentration that dissolves in the medium under given conditions. Higher therefore signals much dissolved substance.
